Measurements taken from ChEMBL document CHEMBL6078642, “Design, Synthesis, and Activity Evaluation of BRD4 PROTAC Based on Alkenyl Oxindole-DCAF11 Pair” (J Med Chem, 2024).
Active and inactive are the calls of the source. The rule behind the calls is not given here.

Tests used:
[1] = target: T1, DCAF11-BRD4 (Homo sapiens, UniProt O60885+Q8TEB1); assay: PROTAC activity at DCAF11/BRD4 BD1 domain (unknown origin) expressed in HEK293T cells assessed as induction of BRD4 degradation at 1 uM incubated for 12 hrs by Dual fluorescence reporter cell high content imaging analysis relative to control; type: cell-based
[2] = system: HEK293T; assay: Induction of BRD4 BD1 domain (unknown origin) degradation expressed in DCAF11 knockout HEK293T cells assessed as decrease in red fluorescence at 1 uM incubated for 12 hrs by dual fluorescence reporter cell based high content imaging analysis; conditions: Homo sapiens
[3] = target: T1, DCAF11-BRD4; assay: PROTAC activity at DCAF11/BRD4 in human MDA-MB-231 cells assessed as induction of BRD4 degradation at 10 to 100 nM incubated for 1 hrs by immunoblot analysis; type: cell-based; conditions: dose 10-100 nM

T1 sequence (Q8TEB1 whole entry, looked up, other chains not shown, the tested form may be a part): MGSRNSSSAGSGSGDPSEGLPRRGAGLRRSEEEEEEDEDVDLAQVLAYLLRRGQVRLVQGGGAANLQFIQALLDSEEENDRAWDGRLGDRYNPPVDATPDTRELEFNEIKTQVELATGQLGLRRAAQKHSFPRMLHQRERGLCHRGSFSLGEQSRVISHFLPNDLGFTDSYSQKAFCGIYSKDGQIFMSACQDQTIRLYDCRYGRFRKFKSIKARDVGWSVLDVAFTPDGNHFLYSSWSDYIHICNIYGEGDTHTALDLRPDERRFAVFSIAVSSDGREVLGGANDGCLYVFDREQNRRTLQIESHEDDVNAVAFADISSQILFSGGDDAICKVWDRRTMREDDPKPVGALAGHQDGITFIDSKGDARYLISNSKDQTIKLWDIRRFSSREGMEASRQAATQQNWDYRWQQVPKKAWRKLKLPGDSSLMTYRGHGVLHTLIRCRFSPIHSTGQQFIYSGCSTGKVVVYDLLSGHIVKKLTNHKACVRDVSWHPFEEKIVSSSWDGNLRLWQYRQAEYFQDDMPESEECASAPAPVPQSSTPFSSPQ

Row | Compound | Activity [1] | Activity [2] | Activity [3]
1 | Cc1ccc(OCC(=O)NCCCOCCOCCOCCCNC(=O)C[C@@H]2N=C(c3ccc(Cl)cc3)c3c(sc(C)c3C)-n3c(C)nnc32)c(/C=C2\C(=O)Nc3ccc(Cl)cc32)c1 (stereo in doubt) | > 35% | inactive | Active
2 | Cc1ccc(OCC(=O)NCCCOCCOCCOCCCNC(=O)C[C@@H]2N=C(c3ccc(Cl)cc3)c3c(sc(C)c3C)-n3c(C)nnc32)c(/C=C2\C(=O)Nc3ccc(F)cc32)c1 (stereo in doubt) | > 35% | inactive | Active
3 | Cc1ccc(OCC(=O)NCCOCCOCCOCCOCCNC(=O)C[C@@H]2N=C(c3ccc(Cl)cc3)c3c(sc(C)c3C)-n3c(C)nnc32)c(/C=C2/C(=O)Nc3cc(C(F)(F)F)ccc32)c1 (stereo in doubt) | > 35% | inactive | 
4 | Cc1sc2c(c1C)C(c1ccc(Cl)cc1)=N[C@@H](CC(=O)NCCCOCCOCCOCCCNC(=O)COc1ccc(/C=C3/C(=O)Nc4cc(C(F)(F)F)ccc43)nc1)c1nnc(C)n1-2 (stereo in doubt) | > 35% | inactive | Active
5 | Cc1sc2c(c1C)C(c1ccc(Cl)cc1)=N[C@@H](CC(=O)NCCCOCCOCCOCCCNC(=O)COc1ccc(/C=C3/C(=O)Nc4ccc(Br)cc43)cc1)c1nnc(C)n1-2 (stereo in doubt) | > 35% | inactive | Active
6 | Cc1sc2c(c1C)C(c1ccc(Cl)cc1)=N[C@@H](CC(=O)NCCCOCCOCCOCCCNC(=O)COc1ccc(/C=C3/C(=O)Nc4ccc(Cl)cc43)cc1)c1nnc(C)n1-2 (stereo in doubt) | > 35% |  | 
7 | Cc1sc2c(c1C)C(c1ccc(Cl)cc1)=N[C@@H](CC(=O)NCCCOCCOCCOCCCNC(=O)COc1ccc(/C=C3/C(=O)Nc4ccc(F)cc43)cc1)c1nnc(C)n1-2 (stereo in doubt) | > 35% | inactive | 
8 | Cc1sc2c(c1C)C(c1ccc(Cl)cc1)=N[C@@H](CC(=O)NCCCOc1c(Br)cc(/C=C3/C(=O)Nc4cc(C(F)(F)F)ccc43)cc1Br)c1nnc(C)n1-2 (stereo in doubt) | > 35% | inactive | 
